The values that follow come from patent publication US8389541B2, “Inhibitors of protein tyrosine kinase activity” (MethylGene Inc., priority 2007, dated 2013).

Each structure is given as a SMILES string.

For one assay, the target named is T1, VEGF receptor KDR (Homo sapiens, UniProt P35968).
T1 construct: made in house; host or cells: Sf9 cells (Spodoptera frugiperda), baculovirus
The assay can be described thus: In vitro receptor tyrosine kinase assay (DELFIA), VEGF receptor KDR. The format is biochemical. The settings on record: GST-VEGFR2 806-1356, 0.6 uM ATP; read-out: VEGFR IC50. The text has this: In the case of VEGF receptor KDR a 1.6-kb cDNA corresponding to the catalytic domain of VEGFR2 or KDR (Genbank accession number AF035121 amino acid 806 to 1356) is cloned into the Pst I site of the pDEST20 Gateway vector (Invitrogen) for the production of a GST-tagged version of that enzyme.
The GST-VEGFR2806-1356 protein is expressed in Sf9 cells (Spodoptera frugiperda) upon infection with recombinant baculovirus construct.
The supernatant is loaded onto a GST-agarose column (Sigma) equilibrated with PBS pH 7.3. Following a four column volume (CV) wash with PBS pH 7.3+1% Triton X-100 and 4 CV wash with buffer B (50 mM Tris pH 8.0, 20% glycerol and 100 mM NaCl), bound proteins are step eluted with 5 CV of buffer B supplemented with 5 mM DTT and 15 mM glutathion. […] Final GST-VEGFR2806-1356 protein preparations concentrations are about 0.7 mg/ml with purity approximating 70%.

In the next assay the test system is A549 cells. As to the kind of experiment: Wound healing assay in A549 cells (HGF-stimulated). The settings on record: Homo sapiens, last dose that inhibited gap closing by more than 25%, 24 h, read-out: A549 WOUND_HEALING IC50. The format is cell-based. On the procedure: Wound healing assay in A549 cells. A549 cells (ATCC) are seeded in DMEM low glucose medium complemented with 10% FBS into 24-well plates at a density of 7.5×10^4 cells/well and grown to confluence (48 h). Inhibitors were added to the medium at a range of doses (0.00032-10 uM) for 3 h at which point a gap is introduced by scraping cells with a P1000 pipette tip. Cells are then stimulated to migrate by the addition of HGF (in the form of conditioned medium from 293T cells over-expressing the human HGF gene) and the culture is continued for 24 h. […] For the purpose of standardization, a control is carried on every assay plates.

Another assay relates to DU145 cells. The assay can be described thus: Scatter assay in DU145 cells (HGF-stimulated). The format is cell-based. The settings on record: Homo sapiens, DU-145, last dose that created an inhibitory effect on scattering, 24 h, read-out: DU145 SCATT. INHIB IC50. The method, then: Scatter assays in DU145. The scatter assay is performed as described previously (Miura H, Nishimura K, Tsujimura A, Matsumiya K, Matsumoto K, Nakamura T, et al. Effects of hepatocyte growth factor on E-cadherin-mediated cell-cell adhesion in DU145 prostate cancer cells. Urology 2001; 58(6):1064-9) for DU145 prostate carcinoma cells with the indicated modifications. In brief, DU145 cells (ATCC) are seeded in 24-well plates at a density of 7×10^3 cells/well in MEM medium complemented with 10% FBS and cultured for 48 h, to allow the formation of small compact colonies of cells. Inhibitors are subsequently added at a range of doses (0.00032-10 uM) for 3 h. Cells are then stimulated to migrate by the addition of HGF (in the form of conditioned medium from 293T cells over-expressing the human HGF gene) and the culture is continued for another 24 h. The IC50 values is defined as the last dose that created an inhibitory effect on scattering. For the purpose of standardization a control is carried on every test plates for the DU145 scattering assays.

In a further assay the target is T2, c-Met (Homo sapiens, UniProt P08581).
T2 construct: endogenous in cells; host or cells: MKN45 gastric carcinoma cells
The assay can be described thus: Inhibition of c-Met phosphorylation in MKN45 cells (direct ELISA). The format is cell-based. The settings on record: 3 h treatment, read-out: CMET ELISA IN MKN45 IC50. The text has this: The following assay is used to determine inhibition of c-Met phosphorylation.
The c-Met receptor is expressed in numerous cancer cell lines derived from tumors of epithelial origin. In MKN45 gastric carcinoma cells the c-Met gene is amplified, resulting in several-fold overexpression of the receptor and its constitutive activation. For this reason constitutively high levels of ERK1/2 are also detected in these cells, independently of HGF-added stimulation (Smolen G A, Sordella R, Muir B, Mohapatra G, Barmettler A, Archibald H, et al. Amplification of MET may identify a subset of cancers with extreme sensitivity to the selective tyrosine kinase inhibitor PHA-665752. Proc Natl Acad Sci USA 2006). We have developed a sensitive method to follow c-Met phosphorylation in these cells. In previous studies with earlier generation c-Met inhibitors, we established that the IC50s for the inhibition of c-Met phosphorylation were identical using this novel ELISA approach and standard western blot procedure, with antibodies directed against the activating autocatalysis tyrosine residues of c-MET (Tyr Y1230-34-35).
Cell treatments: MKN45 cells are seeded into wells of 96-well plates at a density of 3×10^4 cells/well in RPMI medium supplemented with 10% FBS. HA-TPR-RON expressing 293T (clone 18) cells are seeded into wells of 96-well plates at a density of 3×10^4 cells/well in DMEM medium supplemented with 10% FBS. Cells are grown for 48 h prior to treatments with compounds of interest. Inhibitors are added to the medium in triplicate wells at the indicated doses. After 3 h of treatment, media is aspirated and cells are lysed by one freeze-thaw cycle in 50 μL/well hypotonic lysis buffer (25 mM HEPES pH 7.5, 10 mM NaCl with 1 mM 4-(2-aminoethyl)benzenesulfonyl fluoride hydrochloride, 200 μM sodium orthovanadate, 1 mM sodium fluoride, 10 μg/mL of leupeptin, 10 μg/mL of aprotinin/mL, 1 μg/mL of pepstatin and 50 μg/mL Na-p-tosyl-L-lysine chloromethyl ketone hydrochloride.
Detection of phosphorylated c-Met by direct ELISA: Lysate samples (5 μL) from wells of treatment plates are transferred to 80 μL of binding buffer (25 mM HEPES pH 7.5, 200 mM NaCl) in wells of high binding white polysterene 96-well plates (Corning). After an overnight protein binding incubation at 4° C., lysates are aspirated and wells are blocked for 1 h at 37° C. in TBST supplemented with 5% BSA. Plates are incubated with the primary antibodies anti-phospho-Tyrosine (Millipore, 4G10) diluted 1/15000 in TBST supplemented with 5% BSA for 1 h at room temperature. Plates are washed 3 times on a plate washer (SkanWasher, Molecular Devises), and incubated with the reporter antibody […] (Sigma) diluted 1/15000 in TBST supplemented with 5% BSA, for 1 h at room temperature. Plates are washed 3 times with TBST using on a plate washer and subsequently incubated with chemiluminescent substrate solution (ECL, Roche). Luminescence signal is captured on a Polar Star Optima apparatus (BMG LabTech).
Average values of the triplicate samples are used to prepare IC50 curves using a 4-parameter fit model. These curves are calculated using, for example, GraFit 5.0 software. For assay standardization purpose, an internal control is included on each experimental test plate.
Background: An ELISA detects its analyte on a solid surface through an enzyme-linked reagent.

Assay [1] deals with recombinant human c-Met/HGF receptor (Homo sapiens, UniProt P08581). As to the kind of experiment: In vitro receptor tyrosine kinase assay (DELFIA), c-Met/HGF receptor.
Chain of recombinant human c-Met/HGF receptor (P08581 1078-1337): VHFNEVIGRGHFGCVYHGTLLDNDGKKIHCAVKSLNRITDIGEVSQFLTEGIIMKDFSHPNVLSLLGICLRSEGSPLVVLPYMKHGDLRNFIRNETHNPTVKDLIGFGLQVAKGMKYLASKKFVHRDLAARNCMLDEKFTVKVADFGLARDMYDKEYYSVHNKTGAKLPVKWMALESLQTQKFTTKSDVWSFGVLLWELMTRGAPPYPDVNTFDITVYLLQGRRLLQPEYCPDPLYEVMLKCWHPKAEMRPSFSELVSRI

T2 sequence (P08581 25-1390): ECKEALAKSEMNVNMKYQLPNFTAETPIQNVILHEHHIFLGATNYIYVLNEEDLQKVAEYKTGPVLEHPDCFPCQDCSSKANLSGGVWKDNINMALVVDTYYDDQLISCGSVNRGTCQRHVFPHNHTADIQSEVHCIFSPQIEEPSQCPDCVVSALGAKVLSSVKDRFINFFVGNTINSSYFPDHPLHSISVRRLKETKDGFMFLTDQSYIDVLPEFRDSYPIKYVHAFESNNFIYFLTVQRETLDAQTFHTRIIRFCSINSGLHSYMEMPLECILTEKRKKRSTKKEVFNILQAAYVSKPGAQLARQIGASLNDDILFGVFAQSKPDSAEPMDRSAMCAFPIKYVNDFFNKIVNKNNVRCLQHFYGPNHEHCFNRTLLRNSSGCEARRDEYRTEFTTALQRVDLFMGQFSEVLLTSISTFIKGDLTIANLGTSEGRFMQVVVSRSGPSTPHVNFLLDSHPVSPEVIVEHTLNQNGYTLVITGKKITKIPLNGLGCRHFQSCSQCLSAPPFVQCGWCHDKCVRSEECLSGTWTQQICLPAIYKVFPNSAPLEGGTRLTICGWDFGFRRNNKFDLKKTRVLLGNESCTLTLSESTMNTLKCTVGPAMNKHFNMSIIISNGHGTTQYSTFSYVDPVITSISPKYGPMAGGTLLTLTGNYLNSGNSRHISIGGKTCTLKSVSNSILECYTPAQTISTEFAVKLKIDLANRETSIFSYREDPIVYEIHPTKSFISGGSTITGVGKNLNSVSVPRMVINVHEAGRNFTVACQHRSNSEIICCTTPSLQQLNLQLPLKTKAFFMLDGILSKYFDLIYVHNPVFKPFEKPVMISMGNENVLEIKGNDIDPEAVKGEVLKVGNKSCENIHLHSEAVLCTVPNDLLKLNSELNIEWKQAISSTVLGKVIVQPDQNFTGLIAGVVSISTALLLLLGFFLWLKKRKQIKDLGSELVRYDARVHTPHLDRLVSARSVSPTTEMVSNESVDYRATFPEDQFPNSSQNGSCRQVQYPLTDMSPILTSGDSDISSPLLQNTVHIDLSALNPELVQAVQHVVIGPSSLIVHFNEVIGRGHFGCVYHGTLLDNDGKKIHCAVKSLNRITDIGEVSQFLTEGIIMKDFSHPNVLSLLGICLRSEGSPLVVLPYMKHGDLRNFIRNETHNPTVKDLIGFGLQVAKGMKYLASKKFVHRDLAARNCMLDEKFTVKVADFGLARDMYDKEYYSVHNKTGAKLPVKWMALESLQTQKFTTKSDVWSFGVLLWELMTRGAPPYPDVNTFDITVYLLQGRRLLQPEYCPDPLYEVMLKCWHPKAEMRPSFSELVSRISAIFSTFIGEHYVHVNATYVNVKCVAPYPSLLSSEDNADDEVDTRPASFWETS
T1 sequence (P35968 806-1356): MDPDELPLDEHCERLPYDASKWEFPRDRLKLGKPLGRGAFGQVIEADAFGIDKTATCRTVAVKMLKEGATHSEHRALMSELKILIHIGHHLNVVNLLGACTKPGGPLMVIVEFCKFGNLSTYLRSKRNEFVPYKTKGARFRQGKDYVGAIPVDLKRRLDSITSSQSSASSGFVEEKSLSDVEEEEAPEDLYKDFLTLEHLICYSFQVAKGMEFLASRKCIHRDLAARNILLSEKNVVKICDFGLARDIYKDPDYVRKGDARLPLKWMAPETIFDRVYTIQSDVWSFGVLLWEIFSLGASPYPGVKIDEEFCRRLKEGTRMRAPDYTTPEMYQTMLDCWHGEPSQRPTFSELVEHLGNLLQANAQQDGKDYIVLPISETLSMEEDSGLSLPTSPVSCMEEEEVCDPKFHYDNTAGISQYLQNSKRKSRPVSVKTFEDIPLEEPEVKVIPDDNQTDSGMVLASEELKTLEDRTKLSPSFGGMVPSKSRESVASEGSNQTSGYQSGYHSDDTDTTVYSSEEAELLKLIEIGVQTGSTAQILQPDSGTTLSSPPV

What is called IC50 is the midpoint of a concentration-inhibition curve. In the case of `CS(=O)(=O)CCNCc1ccc(-c2cc3nccc(Oc4ccc(NC(=O)C5(C(=O)Nc6ccccc6)CC5)cc4F)c3s2)cc1` [drawing 340], the IC50 (at VEGF receptor KDR; with A549 cells; in the assay with DU145 cells; on c-Met; in assay [1]) was below 250 nM throughout.
Turning to `COCCNCc1ccc(-c2cc3nccc(Oc4ccc(NC(=S)NC(=O)Cc5ccccc5)cc4F)c3s2)nc1`, the IC50 (at VEGF receptor KDR; in the assay with A549 cells; in the assay with DU145 cells; at c-Met; in assay [1]) was below 250 nM throughout.
In the case of `COCCNCc1ccc(-c2cc3nccc(Oc4ccc(NC(=O)C5(C(=O)Nc6ccccc6OC)CC5)cc4F)c3s2)cc1`, the 50% inhibitory concentration (IC50) at VEGF receptor KDR is below 250 nM; with A549 cells it was 250 to 500 nM; with DU145 cells, 250 to 500 nM; at c-Met it was 500 to 1000 nM; in assay [1], below 250 nM.
For `COCCNCc1ccc(-c2cc3nccc(Oc4ccc(NC(=O)CC(=O)Nc5ccc(F)cc5)cc4F)c3s2)nc1`, the 50% inhibitory concentration (IC50) at VEGF receptor KDR is below 250 nM; in the assay with A549 cells, below 250 nM; with DU145 cells, 250 to 500 nM; on c-Met, below 250 nM; in assay [1] it was below 250 nM.
As for `COCCNCc1ccc(-c2cc3nccc(Oc4ccc(NC(=S)NC(=O)Cc5ccccc5OC)cc4F)c3s2)cc1`, the IC50 is below 250 nM on VEGF receptor KDR; above 1000 nM with A549 cells; 250 to 500 nM in the assay on DU145 cells; below 250 nM on c-Met; below 250 nM in assay [1].
Consider `COCCNCCn1cnc(-c2cc3nccc(Oc4ccc(NC(=S)NC(=O)Cc5ccc(F)cc5)cc4F)c3s2)c1` [drawing 318], for which the IC50 on VEGF receptor KDR was below 250 nM; with A549 cells, 250 to 500 nM; in the assay with DU145 cells it was 250 to 500 nM; on c-Met it was below 250 nM; in assay [1], below 250 nM.
For `COCCNCc1cnc(-c2cc3nccc(Oc4ccc(NC(=O)CC(=O)Nc5ccccc5)cc4F)c3s2)n1C` [drawing 345], the IC50 at VEGF receptor KDR is below 250 nM; with A549 cells, 250 to 500 nM; in the assay on DU145 cells, 250 to 500 nM; at c-Met, below 250 nM; in assay [1], below 250 nM.
On to `COCCNCc1cccc(-c2cc3nccc(Oc4ccc(NC(=S)NC(=O)Cc5ccccc5)cc4F)c3s2)n1`, for which the IC50 (at VEGF receptor KDR; with A549 cells; in the assay with DU145 cells; on c-Met; in assay [1]) was below 250 nM in each case.
For `COCCNCc1ccc(-c2cc3nccc(Oc4ccc(NC(=S)NC(=O)Cc5ccc(F)cc5)cc4F)c3s2)cn1` [drawing 309], the IC50 at VEGF receptor KDR was below 250 nM; with A549 cells, 250 to 500 nM; with DU145 cells it was below 250 nM; at c-Met it was below 250 nM; in assay [1], below 250 nM.
Consider `CN(C)CCOC(=O)N1CC=C(c2cc3nccc(Oc4ccc(NC(=O)CC(=O)N(C)c5ccccc5)cc4F)c3s2)CC1`, for which the IC50 at VEGF receptor KDR is below 250 nM; in the assay on A549 cells, above 1000 nM; with DU145 cells, 250 to 500 nM; at c-Met, below 250 nM; in assay [1], below 250 nM.
Take `CN(C)CCOC(=O)N1CC=C(c2cc3nccc(Oc4ccc(NC(=S)NC(=O)Cc5ccccc5)cc4F)c3s2)CC1`: the IC50 (at VEGF receptor KDR; in the assay on A549 cells; in the assay on DU145 cells; at c-Met; in assay [1]) was below 250 nM in each case.
As to `COC[C@H](C)NCc1cccc(-c2cc3nccc(Oc4ccc(NC(=S)NC(=O)Cc5ccccc5)cc4F)c3s2)c1`, the IC50 on VEGF receptor KDR is below 250 nM; with A549 cells, 250 to 500 nM; in the assay on DU145 cells it was 250 to 500 nM; on c-Met it was below 250 nM; in assay [1], below 250 nM.
As to `COCCNC(=O)c1ccc(-c2cc3nccc(Oc4ccc(NC(=S)NC(=O)Cc5ccccc5)cc4F)c3s2)cc1`, the IC50 at VEGF receptor KDR is below 250 nM; with A549 cells, above 1000 nM; in the assay with DU145 cells, 250 to 500 nM; at c-Met, below 250 nM; in assay [1], below 250 nM.
Consider `COC[C@H](C)NCc1ccc(-c2cc3nccc(Oc4ccc(NC(=S)NC(=O)Cc5ccccc5)cc4F)c3s2)cc1`, for which the IC50 at VEGF receptor KDR is below 250 nM; in the assay on A549 cells, 250 to 500 nM; in the assay on DU145 cells, 250 to 500 nM; on c-Met, 250 to 500 nM; in assay [1], below 250 nM.
As to `COCCNCc1ccc(-c2cc3nccc(Oc4ccc(NC(=S)NC(=O)Cc5ccccc5)cc4F)c3s2)o1`, the IC50 at VEGF receptor KDR is below 250 nM; in the assay on A549 cells it was 250 to 500 nM; with DU145 cells it was above 1000 nM; on c-Met, below 250 nM; in assay [1], below 250 nM.
As to `COCCNCc1ccc(-c2cc3nccc(Oc4ccc(NC(=O)NC(=O)Cc5ccccc5OC)cc4F)c3s2)cc1`, the IC50 on VEGF receptor KDR is below 250 nM; in the assay on A549 cells it was 500 to 1000 nM; in the assay on DU145 cells it was above 1000 nM; at c-Met, 500 to 1000 nM; in assay [1], below 250 nM.
On to `COCCNCCc1cccc(-c2cc3nccc(Oc4ccc(NC(=S)NC(=O)Cc5ccc(F)cc5)cc4F)c3s2)c1`, for which the IC50 was below 250 nM at VEGF receptor KDR; 250 to 500 nM with A549 cells; below 250 nM in the assay on DU145 cells; below 250 nM on c-Met; below 250 nM in assay [1].
For the molecule `COCCNCCC(=O)N1CC=C(c2cc3nccc(Oc4ccc(NC(=O)CC(=O)N(C)c5ccccc5)cc4F)c3s2)CC1`, the IC50 on VEGF receptor KDR was below 250 nM; with A549 cells, 250 to 500 nM; in the assay with DU145 cells, below 250 nM; at c-Met, below 250 nM; in assay [1] it was below 250 nM.
